# Test results: ChEMBL document CHEMBL1130760, “Anti-malarial activities of acylated bruceolide derivatives” (Bioorg Med Chem Lett, 1998)
# Several values for one entry are separate records, joined by “and”; a condition that tells them apart may be missing. Identical values can stand only once.
# Legend:
# Plasmodium falciparum = test: Anti-malarial activity as growth inhibition of chloroquine-resistant Plasmodium falciparum; type: functional, organism-based
# FM3A [1] = test: Cytotoxicity against FM3A cells derived from a mammary tumor in mice was evaluated.; type: functional, cell-based; conditions: Mus musculus
# FM3A [2] = test: Selective toxicity against Plasmodium falciparum compared to FM3A cytotoxicity; type: functional
# FM3A [3] = test: […] was evaluated by the percent viability of cells; type: functional, Mus musculus
compound,measurement,setting,value
COC(=O)[C@@]12OC[C@]34[C@H]([C@@H](O)[C@@H]1O)[C@@]1(C)CC(=O)C(OC(=O)/C=C/c5ccccc5)=C(C)[C@@H]1C[C@H]3OC(=O)[C@H](OC(=O)/C=C/c1ccccc1)[C@@H]24,EC50,Plasmodium falciparum; Plasmodium falciparum,82 nM
same,EC50,FM3A [1],< 150 nM
C/C=C(/C)C(=O)OC1=C(C)[C@@H]2C[C@H]3OC(=O)[C@H](OC(=O)/C(C)=C\C)[C@H]4[C@]5(C(=O)OC)OC[C@]34[C@H]([C@@H](O)[C@@H]5O)[C@@]2(C)CC1=O,EC50,Plasmodium falciparum; Plasmodium falciparum,700 nM
same,EC50,FM3A [1],6000 nM
same,Ratio,FM3A [2],9
CCC(=O)OC1=C(C)[C@@H]2C[C@H]3OC(=O)[C@H](OC(=O)CC)[C@H]4[C@]5(C(=O)OC)OC[C@]34[C@H]([C@@H](O)[C@@H]5O)[C@@]2(C)CC1=O,EC50,Plasmodium falciparum; Plasmodium falciparum,35 nM
same,EC50,FM3A [1],6100 nM
same,Ratio,FM3A [2],174
CCCCCC(=O)OC1=C(C)[C@@H]2C[C@H]3OC(=O)[C@H](O)[C@H]4[C@]5(C(=O)OC)OC[C@]34[C@H]([C@@H](O)[C@@H]5O)[C@@]2(C)CC1=O,EC50,Plasmodium falciparum; Plasmodium falciparum,1000 nM
same,EC50,FM3A [1],1000 nM
COC(=O)[C@@]12OC[C@]34[C@H]([C@@H](O)[C@@H]1O)[C@@]1(C)CC(=O)C(OC(C)=O)=C(C)[C@@H]1C[C@H]3OC(=O)[C@H](OC(C)=O)[C@@H]24,EC50,Plasmodium falciparum; Plasmodium falciparum,39 nM
same,EC50,FM3A [1],16000 nM
same,Ratio,FM3A [2],410
CCCCCC(=O)OC1=C(C)[C@@H]2C[C@H]3OC(=O)[C@H](OC(=O)CCCCC)[C@H]4[C@]5(C(=O)OC)OC[C@]34[C@H]([C@@H](O)[C@@H]5O)[C@@]2(C)CC1=O,EC50,Plasmodium falciparum; Plasmodium falciparum,98 nM
same,EC50,FM3A [1],< 170 nM
COC(=O)[C@@]12OC[C@]34[C@H]([C@@H](O)[C@@H]1O)[C@@]1(C)CC(=O)C(O)=C(C)[C@@H]1C[C@H]3OC(=O)[C@H](O)[C@@H]24 [BRUCEOLIDE],EC50,Plasmodium falciparum; Plasmodium falciparum,1700 nM
same,EC50,FM3A [1],> 21000 nM
same,Ratio,FM3A [2],>12.3
CCCCCCCCCC(=O)OC1=C(C)[C@@H]2C[C@H]3OC(=O)[C@H](OC(=O)CCCCCCCCC)[C@H]4[C@]5(C(=O)OC)OC[C@]34[C@H]([C@@H](O)[C@@H]5O)[C@@]2(C)CC1=O,EC50,Plasmodium falciparum; Plasmodium falciparum,390 nM
same,EC50,FM3A [1],< 160 nM
CCC(=O)O[C@H]1C(=O)O[C@@H]2C[C@H]3C(C)=C(O)C(=O)C[C@]3(C)[C@H]3[C@@H](O)[C@H](O)[C@@]4(C(=O)OC)OC[C@]32[C@@H]14,EC50,Plasmodium falciparum; Plasmodium falciparum,29 nM
same,EC50,FM3A [1],7000 nM
same,Ratio,FM3A [2],241
C/C=C(\C)C(=O)OC1=C(C)[C@@H]2C[C@H]3OC(=O)[C@H](OC(=O)/C(C)=C/C)[C@H]4[C@]5(C(=O)OC)OC[C@]34[C@H]([C@@H](O)[C@@H]5O)[C@@]2(C)CC1=O,EC50,Plasmodium falciparum,> 1000 nM and 16000 nM
same,EC50,FM3A [1],> 16000 nM
same,Viability,FM3A [3],100%
CCCCCCCCCCCCCCCC(=O)OC1=C(C)[C@@H]2C[C@H]3OC(=O)[C@H](OC(=O)CCCCCCCCCCCCCCC)[C@H]4[C@]5(C(=O)OC)OC[C@]34[C@H]([C@@H](O)[C@@H]5O)[C@@]2(C)CC1=O,EC50,Plasmodium falciparum; Plasmodium falciparum,16000 nM
same,Viability,FM3A [3],89.9%
COC(=O)[C@@]12OC[C@]34[C@H]([C@@H](O)[C@@H]1O)[C@@]1(C)CC(=O)C(OC(=O)c5ccccc5)=C(C)[C@@H]1C[C@H]3OC(=O)[C@H](OC(=O)c1ccccc1)[C@@H]24,EC50,Plasmodium falciparum; Plasmodium falciparum,> 1000 nM
same,EC50,FM3A [1],400 nM
COC(=O)[C@@]12OC[C@]34[C@H]([C@@H](O)[C@@H]1O)[C@@]1(C)CC(=O)C(OC(=O)C(N)C(C)C)=C(C)[C@@H]1C[C@H]3OC(=O)[C@H](OC(=O)C(N)C(C)C)[C@@H]24 (some centres undefined),EC50,Plasmodium falciparum; Plasmodium falciparum,570 nM
same,EC50,FM3A [1],> 15000 nM
same,Ratio,FM3A [2],>26
COC(=O)[C@@]12OC[C@]34[C@H]([C@@H](O)[C@@H]1O)[C@@]1(C)CC(=O)C(O)=C(C)[C@@H]1C[C@H]3OC(=O)[C@H](OC(C)=O)[C@@H]24 [BRUCEINE B],EC50,Plasmodium falciparum; Plasmodium falciparum,24 nM
same,EC50,FM3A [1],8000 nM
same,Ratio,FM3A [2],333
CCCCCCCCCC(=O)OC1=C(C)[C@@H]2C[C@H]3OC(=O)[C@H](O)[C@H]4[C@]5(C(=O)OC)OC[C@]34[C@H]([C@@H](O)[C@@H]5O)[C@@]2(C)CC1=O,EC50,Plasmodium falciparum; Plasmodium falciparum,> 1000 nM
same,EC50,FM3A [1],400 nM
COC(=O)[C@@]12OC[C@]34[C@H]([C@@H](O)[C@@H]1O)[C@@]1(C)CC(=O)C(OC(=O)C(N)Cc5ccccc5)=C(C)[C@@H]1C[C@H]3OC(=O)[C@H](OC(=O)C(N)Cc1ccccc1)[C@@H]24 (some centres undefined),EC50,Plasmodium falciparum; Plasmodium falciparum,2800 nM
same,EC50,FM3A [1],> 15000 nM
same,Ratio,FM3A [2],>5.4
COC(=O)[C@@]12OC[C@]34[C@H]([C@@H](O)[C@@H]1O)[C@@]1(C)CC(=O)C(OC(=O)C(C)N)=C(C)[C@@H]1C[C@H]3OC(=O)[C@H](OC(=O)C(C)N)[C@@H]24 (some centres undefined),EC50,Plasmodium falciparum; Plasmodium falciparum,1000 nM
same,EC50,FM3A [1],> 16000 nM
same,Ratio,FM3A [2],>16
